For 25 compounds, IC50 results are on record in US12110299B2, “Thiazole derivatives and pharmaceutically acceptable salts thereof” (YUNGJIN PHARM. CO., LTD., priority 2018, dated 2024).

The term IC50 denotes the concentration that inhibits the measured activity by half. Read a low IC50 as higher potency.

Structures are written as SMILES.

One test has as its system MDA-MB-468 cells. Put plainly: Anti-proliferative effect on MDA-MB-468 cells, IC50 (MTT). It counts as cell-based. The following applies: Homo sapiens, MDA-MB-468, 72 h.
In the next test the test system is HepG2 cells. Put plainly: HepG2 cell viability assay (CCK-8). It counts as cell-based, human. As to conditions: Homo sapiens, HepG2, 72 h. On the procedure: The ability to inhibit the proliferation of HepG2 cells, which are human hepatocellular carcinoma cells, was measured through the in vitro cell viability assay. Cells were cultured at 37° C. in a humidified condition in the presence of 5% CO2 using a culture medium of MEM (Welgene)+10% FBS (Gibco)+1% penicillin/streptomycin (Gibco). […] Cell viability was measured by CCK-8 method using tetrazolium salt, and the ability of the compounds according to the present invention to inhibit cancer cell proliferation was calculated.

Procedure for MDA-MB-468 cells: The compounds of the present invention were tested at different concentrations (from 1000 nM to 1 nM) to assess their ability for inhibiting the proliferation of MDAMB-468 cells. Cells were cultivated in RPMI 1640 (Welgene)+10% FBS (Gibco)+1% penicillin/streptomycin (Gibco) and cultured at 37° C. in a humidified chamber in the presence of 5% C02.
MDA-MB-468 cells cultured in 96-well cell culture plates were treated with the compounds of the present invention and incubated for 72 hours.

The compound `CC(C(=O)Nc1ncc(C(F)(F)F)s1)c1cncc(-c2cnc(NC(=O)/C=C/CN3CCOCC3)cn2)c1` (stereo not drawn) [Example 74, (E)-4-morpholino-N-(5-(5-(1-oxo-1-((5-(trifluoromethyl)thiazol-2-yl)amino)propan-2-yl)pyridin-3-yl)pyrazin-2-yl)but-2-enamide] displayed an IC50 in the test on MDA-MB-468 cells of 65 nM.

As for `C[C@H](C(=O)Nc1ncc(C(F)(F)F)s1)c1cccc(-c2cnc(NC(=O)/C=C/CN(C)C)cn2)c1` [Example 81, (S,E)-4-(dimethylamino)-N-(5-(3-(1-oxo-1-((5-(trifluoromethyl)thiazol-2-yl)amino)propan-2-yl)phenyl)pyrazin-2-yl)but-2-enamide], the IC50 with MDA-MB-468 cells turned out to be 39 nM; in the test with HepG2 cells, 11 nM. Consider `C=CC(=O)Nc1ccc(-c2cncc(C(C)C(=O)Nc3ncc(C(F)(F)F)s3)c2)cn1` (stereo not drawn) [Example 82, N-(5′-(1-oxo-1-((5-(trifluoromethyl)thiazol-2-yl)amino)propan-2-yl)-[3,3′-bipyridin]-6-yl)acrylamide], for which the figures for the IC50 with MDA-MB-468 cells and in the test on HepG2 cells were 32 nM and 4 nM, respectively. On to `CC(C(=O)Nc1ncc(C(F)(F)F)s1)c1cncc(-c2cnc(NC(=O)/C=C/CN3CC4CC3CO4)cn2)c1` (stereo not drawn) [Example 83, (E)-4-(2-oxa-5-azabicyclo[2.2.1]heptan-5-yl)-N-(5-(5-(1-oxo-1-((5-(trifluoromethyl)thiazol-2-yl)amino)propan-2-yl)pyridin-3-yl)pyrazin-2-yl)but-2-enamide], for which the IC50 with MDA-MB-468 cells came out at 21 nM; with HepG2 cells it was 3 nM. As for `C=CC(=O)Nc1ncc(-c2cncc(C(C)C(=O)Nc3ncc(C(F)(F)F)s3)c2)cc1C#N` (stereo not drawn) [Example 88, N-(5-cyano-5′-(1-oxo-1-((5-(trifluoromethyl)thiazol-2-yl)amino)propan-2-yl)-[3,3′-bipyridin]-6-yl)acrylamide], the IC50 with MDA-MB-468 cells was determined as 54 nM; with HepG2 cells it was 9 nM. For the compound `C[C@H](C(=O)Nc1ncc(C(F)(F)F)s1)c1cccc(-c2cnc(NC(=O)/C=C/CN3CCOCC3)cn2)c1` [Example 92, (S,E)-4-morpholino-N-(5-(3-(1-oxo-1-((5-(trifluoromethyl)thiazol-2-yl)amino)propan-2-yl)phenyl)pyrazin-2-yl)but-2-enamide], the IC50 in the test on MDA-MB-468 cells was found to be 52 nM; in the test with HepG2 cells it was 74 nM. For `C[C@H](C(=O)Nc1ncc(Cl)s1)c1cccc(-c2cnc(NC(=O)/C=C/CN(C)C)cn2)c1` [Example 93, (S,E)-N-(5-(3-(1-((5-chlorothiazol-2-yl)amino)-1-oxopropan-2-yl)phenyl)pyrazin-2-yl)-4-(dimethylamino)but-2-enamide], in that order: 38 nM and 21 nM. In the case of `C[C@H](C(=O)Nc1ncc(Cl)s1)c1cccc(-c2cnc(NC(=O)/C=C/CN3CC4CC3CO4)cn2)c1` (stereo partly drawn) [Example 94, (E)-4-(2-oxa-5-azabicyclo[2.2.1]heptan-5-yl)-N-(5-(3-((S)-1-((5-chlorothiazol-2-yl)amino)-1-oxopropan-2-yl)phenyl)pyrazin-2-yl)but-2-enamide], the IC50 in the test on MDA-MB-468 cells was 59 nM; in the test with HepG2 cells, 25 nM.

On to `C[C@H](C(=O)Nc1ncc(C(F)(F)F)s1)c1cccc(-c2cnc(NC(=O)/C=C/CN3CC4CC3CO4)cn2)c1` (stereo partly drawn) [Example 96, (E)-4-(2-oxa-5-azabicyclo[2.2.1]heptan-5-yl)-N-(5-(3-((S)-1-oxo-1-((5-(trifluoromethyl)thiazol-2-yl)amino)propan-2-yl)phenyl)pyrazin-2-yl)but-2-enamide], for which the IC50 with MDA-MB-468 cells turned out to be 68 nM; with HepG2 cells, 19 nM. Take `C[C@H](C(=O)Nc1ncc(C(F)(F)F)s1)c1cccc(-c2cnc(NC(=O)/C=C/CN(C)C)c(F)c2)c1` [Example 99, (S,E)-4-(dimethylamino)-N-(3-fluoro-5-(3-(1-oxo-1-((5-(trifluoromethyl)thiazol-2-yl)amino)propan-2-yl)phenyl)pyridin-2-yl)but-2-enamide]: the values for the IC50 in the test with MDA-MB-468 cells and in the test on HepG2 cells were 23 nM and 5 nM, respectively. Take `COc1cc(-c2cccc([C@H](C)C(=O)Nc3ncc(C(F)(F)F)s3)c2)cnc1NC(=O)/C=C/CN(C)C` [Example 100, (S,E)-4-(dimethylamino)-N-(3-methoxy-5-(3-(1-oxo-1-((5-(trifluoromethyl)thiazol-2-yl)amino)propan-2-yl)phenyl)pyridin-2-yl)but-2-enamide]: the results for the IC50 in the test on MDA-MB-468 cells and with HepG2 cells were 56 nM and 8 nM, respectively. For `C[C@H](C(=O)Nc1ncc(C(F)(F)F)s1)c1cccc(-c2cnc(NC(=O)/C=C/CN3CCCC3)cn2)c1` [Example 102, (S,E)-N-(5-(3-(1-oxo-1-((5-(trifluoromethyl)thiazol-2-yl)amino)propan-2-yl)phenyl)pyrazin-2-yl)-4-(pyrrolidin-1-yl)but-2-enamide], in that order: 57 nM and 13 nM.

Turning to `C[C@H](C(=O)Nc1ncc(C(F)(F)F)s1)c1cccc(-c2cnc(NC(=O)/C=C/CN3CCC3)cn2)c1` [Example 103, (S,E)-4-(azetidin-1-yl)-N-(5-(3-(1-oxo-1-((5-(trifluoromethyl)thiazol-2-yl)amino)propan-2-yl)phenyl)pyrazin-2-yl)but-2-enamide], the values for the IC50 in the test on MDA-MB-468 cells and in the test with HepG2 cells were 68 nM and 14 nM, respectively. For the compound `C[C@H](C(=O)Nc1ncc(C2CCC2)s1)c1cccc(-c2cnc(NC(=O)/C=C/CN(C)C)cn2)c1` [Example 104, (S,E)-N-(5-(3-(1-((5-cyclobutylthiazol-2-yl)amino)-1-oxopropan-2-yl)phenyl)pyrazin-2-yl)-4-(dimethylamino)but-2-enamide], the half-maximal inhibitory concentration (IC50) in the test on MDA-MB-468 cells was 44 nM; with HepG2 cells it was 8 nM. As to `CC(C(=O)Nc1ncc(C(F)(F)F)s1)c1cncc(-c2ccc(NC(=O)/C=C/CN(C)C)nc2)c1` (stereo not drawn) [Example 107, (E)-4-(dimethylamino)-N-(5′-(1-oxo-1-((5-(trifluoromethyl)thiazol-2-yl)amino)propan-2-yl)-[3,3′-bipyridin]-6-yl)but-2-enamide], the midpoint of inhibition in the test with HepG2 cells, the IC50, lay at 3.1 nM. With `CC(C(=O)Nc1ncc(C(F)(F)F)s1)c1cncc(-c2cnc(NC(=O)/C=C/CN(C)C)c(C#N)c2)c1` (stereo not drawn) [Example 108, (E)-N-(5-cyano-5′-(1-oxo-1-((5-(trifluoromethyl)thiazol-2-yl)amino)propan-2-yl)-[3,3′-bipyridin]-6-yl)-4-(dimethylamino)but-2-enamide], the IC50 in the test on MDA-MB-468 cells was found to be 31 nM; in the test with HepG2 cells, 4.6 nM. As for `COc1nc(-c2cccc([C@H](C)C(=O)Nc3ncc(C(F)(F)F)s3)c2)cnc1NC(=O)/C=C/CN(C)C` [Example 109, (S,E)-4-(dimethylamino)-N-(3-methoxy-5-(3-(1-oxo-1-((5-(trifluoromethyl)thiazol-2-yl)amino)propan-2-yl)phenyl)pyrazin-2-yl)but-2-enamide], the IC50 came to 31 nM with MDA-MB-468 cells and 2.6 nM with HepG2 cells. With `C[C@H](C(=O)Nc1ncc(C(F)(F)F)s1)c1cccc(-c2cnc3c(c2)CCN3C(=O)/C=C/CN(C)C)c1` [Example 110, (S,E)-2-(3-(1-(4-(dimethylamino)but-2-enoyl)-2,3-dihydro-1H-pyrrolo[2,3-b]pyridin-5-yl)phenyl)-N-(5-(trifluoromethyl)thiazol-2-yl)propanamide], the IC50 in the test with MDA-MB-468 cells turned out to be 74 nM; with HepG2 cells it was 17.4 nM. Turning to `C[C@H](C(=O)Nc1ncc(C(F)(F)F)s1)c1cccc(-c2cnc(NC(=O)/C=C/CN(C)C)c(C(F)(F)F)c2)c1` [Example 111, (S,E)-4-(dimethylamino)-N-(5-(3-(1-oxo-1-((5-(trifluoromethyl)thiazol-2-yl)amino)propan-2-yl)phenyl)-3-(trifluoromethyl)pyridin-2-yl)but-2-enamide], the IC50 in the test on MDA-MB-468 cells was found to be 32 nM; with HepG2 cells, 4 nM. For `Cc1cc(-c2cccc([C@H](C)C(=O)Nc3ncc(C(F)(F)F)s3)c2)cnc1NC(=O)/C=C/CN(C)C` [Example 112, (S,E)-4-(dimethylamino)-N-(3-methyl-5-(3-(1-oxo-1-((5-(trifluoromethyl)thiazol-2-yl)amino)propan-2-yl)phenyl)pyridin-2-yl)but-2-enamide], in that order: 59 nM and 8.7 nM.

With `C[C@H](C(=O)Nc1ncc(C(F)(F)F)s1)c1cccc(-c2cnc(NC(=O)/C=C/CN(C)C)c(Cl)c2)c1` [Example 113, (S,E)-N-(3-chloro-5-(3-(1-oxo-1-((5-(trifluoromethyl)thiazol-2-yl)amino)propan-2-yl)phenyl)pyridin-2-yl)-4-(dimethylamino)but-2-enamide], the IC50 amounted to 35 nM in the test with MDA-MB-468 cells and 4.2 nM in the test on HepG2 cells. For `CCN(CC)C/C=C/C(=O)Nc1cnc(-c2cccc([C@H](C)C(=O)Nc3ncc(C(F)(F)F)s3)c2)cn1` [Example 114, (S,E)-4-(diethylamino)-N-(5-(3-(1-oxo-1-((5-(trifluoromethyl)thiazol-2-yl)amino)propan-2-yl)phenyl)pyrazin-2-yl)but-2-enamide], in that order: 56 nM and 12 nM.

On to `COC[C@@H]1CCCN1C/C=C/C(=O)Nc1cnc(-c2cccc([C@H](C)C(=O)Nc3ncc(C(F)(F)F)s3)c2)cn1` [Example 118, (E)-4-((S)-2-(methoxymethyl)pyrrolidin-1-yl)-N-(5-(3-((S)-1-oxo-1-((5-(trifluoromethyl)thiazol-2-yl)amino)propan-2-yl)phenyl)pyrazin-2-yl)but-2-enamide], for which inhibition in the test with MDA-MB-468 cells was half-maximal at 47 nM (IC50). For `C[C@H](C(=O)Nc1ncc(C(F)(F)F)s1)c1cccc(-c2cnc(NC(=O)/C=C/CN3CCCCC3)cn2)c1` [Example 120, (S,E)-N-(5-(3-(1-oxo-1-((5-(trifluoromethyl)thiazol-2-yl)amino)propan-2-yl)phenyl)pyrazin-2-yl)-4-(piperidin-1-yl)but-2-enamide], the IC50 in the test on MDA-MB-468 cells was found to be 51 nM. As for `C=CC(=O)Nc1ncc(-c2cccc([C@H](C)C(=O)Nc3ncc(C(F)(F)F)s3)c2)cc1C#N` [Example 124, (S)-N-(3-cyano-5-(3-(1-oxo-1-((5-(trifluoromethyl)thiazol-2-yl)amino)propan-2-yl)phenyl)pyridin-2-yl)acrylamide], in the test on MDA-MB-468 cells, 40 nM corresponded to half-maximal inhibition (IC50).
